# In patent US20240239766A1, “3-AMINO PIPERIDYL SODIUM CHANNEL INHIBITORS” (Genentech, Inc., priority 2021, published 2024):
# pIC50: −log10 of the molar value. Counter-ions that a name gives are not always drawn.
# Target: hNav1.7 (Homo sapiens (Human), UniProt Q15858)
# Assay: Patch voltage clamp electrophysiology assay (EP), Syncropatch 384PE, CHO cells expressing Nav1.7
# Assay type: cell-based
# Settings: holding potential −50 mV; 7.5 min compound incubation; read-out: EP SP hNav1.7 EVO (IC50)
# Excerpt: Example 101c: Electrophysiological Assay (EP) (In Vitro Assay)
# Patch voltage clamp electrophysiology allows for the direct measurement and quantification of block of voltage-gated sodium channels (NaV's), and allows the determination of the time- and voltage-dependence of block which has been interpreted as differential binding to the resting, open, and inactivated states of the sodium channel (Hille, B., Journal of General Physiology (1977), 69: 497-515).
# The following voltage clamp electrophysiology studies are performed on representative compounds using cells heterologously expressing Nav1.7 or Nav1.5 channels. cDNAsfor Nav1.7 (NM_002977) and Nav1.5 (AC137587) are stably expressed in Chinese Hamstr Ovary (CHO) cells and CHL (Chinese Hamster Lung) cells respectively. Sodium currents are measured in the whole-cell configuration using Syncropatch 384PE (Nanlon Technologies, Germany). 1NPC®-384 chips with custom medium resistance and single hole mode are used. Internal solution consists of (in mM): […], 10 CsCl, 20 EGTA, and 10 Hepes (pH adjusted to 7.2); and external solution contains (in mM): 60 NMDG, 80 NaCl, 4 KCl, 1 MgCl2, 2 CaCl2), 2 D-Glucose monohydrate, 10 Hepes (pH adjusted to 7.4 with NaOH).
# After system flushing, testing compounds are dissolved in external solution containing 0.1% Pluronic F-127. The chip is moved into the measuring head and the instrument primes the chip with external and internal solutions. 10 μl cells are added to the chip from a cell hotel, and a negative pressure of −50 mBar is applied to form a seal. Following treatment with seal enhancer solution and wash-off with external solution, negative pressure of −250 mbar is applied for 1 second to achieve the whole-cell configuration, followed by three washing steps in external solution. 20 μl of compounds is added to 40 μl in each well (1:3 dilution of compounds), and after mixing, 20 μl is removed so the volume is retained at 40 ul. After approximately 13 minutes recordings, 20 μl/well of 2 uM TTX, or 333 uM Tetracaine (for Nav1.5) is added to achieve full block.
# For voltage protocol, an holding potential of −50 mV is applied during the whole experiment. A depolarizing step is applied to −10 mV for 10 ms, followed by a hyperpolarization step to −150 mV for 20 ms to allow channel recovery from inactivation. A second depolarizing step is applied from −150 mV to −10 mV for 10 ms, where currents are measured to derive blocking effects of compounds. Inhibition is determined based on 7.5 min of compound incubation.
# Chain of hNav1.7 (Q15858 other isoform, or with tags, fused parts or gaps): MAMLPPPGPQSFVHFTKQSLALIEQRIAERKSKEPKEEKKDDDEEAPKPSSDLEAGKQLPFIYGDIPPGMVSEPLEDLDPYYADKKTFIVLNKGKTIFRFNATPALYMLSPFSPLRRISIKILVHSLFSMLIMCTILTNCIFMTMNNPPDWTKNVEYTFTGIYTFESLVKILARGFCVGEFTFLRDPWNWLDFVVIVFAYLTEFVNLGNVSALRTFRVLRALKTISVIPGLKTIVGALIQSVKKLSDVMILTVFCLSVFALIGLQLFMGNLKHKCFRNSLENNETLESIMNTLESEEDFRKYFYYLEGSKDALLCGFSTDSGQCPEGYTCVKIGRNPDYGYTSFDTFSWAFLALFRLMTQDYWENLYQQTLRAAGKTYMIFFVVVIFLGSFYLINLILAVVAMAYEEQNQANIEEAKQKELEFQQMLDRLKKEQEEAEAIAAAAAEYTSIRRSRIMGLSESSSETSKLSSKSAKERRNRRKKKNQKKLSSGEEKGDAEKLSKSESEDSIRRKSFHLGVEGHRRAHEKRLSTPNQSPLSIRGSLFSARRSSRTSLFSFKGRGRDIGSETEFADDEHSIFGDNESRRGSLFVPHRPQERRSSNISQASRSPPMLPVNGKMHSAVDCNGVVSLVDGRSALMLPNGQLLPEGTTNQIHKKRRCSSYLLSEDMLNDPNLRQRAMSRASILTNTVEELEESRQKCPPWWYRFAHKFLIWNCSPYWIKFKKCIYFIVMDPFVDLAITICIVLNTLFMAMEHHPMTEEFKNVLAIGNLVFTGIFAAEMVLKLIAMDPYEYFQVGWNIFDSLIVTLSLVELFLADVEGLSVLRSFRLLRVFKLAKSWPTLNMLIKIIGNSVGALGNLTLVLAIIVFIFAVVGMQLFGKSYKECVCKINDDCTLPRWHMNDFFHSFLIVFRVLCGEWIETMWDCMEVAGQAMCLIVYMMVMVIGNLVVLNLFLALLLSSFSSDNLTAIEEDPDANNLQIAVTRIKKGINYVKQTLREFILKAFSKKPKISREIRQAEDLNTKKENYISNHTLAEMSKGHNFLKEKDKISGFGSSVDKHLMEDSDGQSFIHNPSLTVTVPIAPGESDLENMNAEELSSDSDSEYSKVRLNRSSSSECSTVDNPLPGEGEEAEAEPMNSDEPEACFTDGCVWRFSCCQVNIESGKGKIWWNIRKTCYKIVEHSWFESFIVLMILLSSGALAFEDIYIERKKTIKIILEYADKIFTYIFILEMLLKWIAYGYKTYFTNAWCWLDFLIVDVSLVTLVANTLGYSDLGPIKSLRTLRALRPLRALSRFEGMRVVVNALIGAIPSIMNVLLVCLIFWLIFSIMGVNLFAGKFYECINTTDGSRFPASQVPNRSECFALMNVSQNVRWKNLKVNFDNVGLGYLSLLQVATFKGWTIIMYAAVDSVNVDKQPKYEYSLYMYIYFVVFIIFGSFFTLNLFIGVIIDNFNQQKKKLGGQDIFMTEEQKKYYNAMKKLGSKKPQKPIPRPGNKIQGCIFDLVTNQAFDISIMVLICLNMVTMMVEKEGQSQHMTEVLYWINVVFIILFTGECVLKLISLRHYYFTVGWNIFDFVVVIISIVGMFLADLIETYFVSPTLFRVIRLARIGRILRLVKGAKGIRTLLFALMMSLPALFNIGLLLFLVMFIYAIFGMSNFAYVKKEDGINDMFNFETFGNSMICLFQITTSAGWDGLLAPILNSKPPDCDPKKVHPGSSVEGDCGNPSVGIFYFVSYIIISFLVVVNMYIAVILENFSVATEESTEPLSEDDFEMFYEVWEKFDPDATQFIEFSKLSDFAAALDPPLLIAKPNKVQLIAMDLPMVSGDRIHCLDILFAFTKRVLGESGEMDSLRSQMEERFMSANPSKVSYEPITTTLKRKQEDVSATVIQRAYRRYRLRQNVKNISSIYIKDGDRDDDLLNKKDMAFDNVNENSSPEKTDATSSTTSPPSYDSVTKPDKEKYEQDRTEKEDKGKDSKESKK
row,SMILES,pIC50
1,"CN(C)[C@@]1(CCc2ccc(Cl)c(C(F)(F)F)c2)CCCN(c2cc(F)c(S(=O)(=O)Nc3ccncn3)c(F)c2)C1 (single isomer, unassigned) [Example 54]",6.44
2,"CN(C)[C@]1(CCc2ccc(Cl)c(C(F)(F)F)c2)CCCN(c2cc(F)c(S(=O)(=O)Nc3ccncn3)c(F)c2)C1 (single isomer, unassigned) [Example 55, formate]",9.06
3,"CN(C)[C@@]1(CCc2ccc(C(F)(F)F)cc2Cl)CCCN(c2cc(F)c(S(=O)(=O)Nc3ccncn3)c(F)c2)C1 (single isomer, unassigned) [Example 56]",6.45
4,"CN(C)[C@]1(CCc2ccc(C(F)(F)F)cc2Cl)CCCN(c2cc(F)c(S(=O)(=O)Nc3ccncn3)c(F)c2)C1 (single isomer, unassigned) [Example 57]",8.30
5,"CN(C)[C@@]1(CCc2cccc(C(F)(F)F)c2)CCCN(c2cc(F)c(S(=O)(=O)Nc3ccon3)c(F)c2)C1 (single isomer, unassigned) [Example 58]",5.00
6,"CN(C)[C@]1(CCc2cccc(C(F)(F)F)c2)CCCN(c2cc(F)c(S(=O)(=O)Nc3ccon3)c(F)c2)C1 (single isomer, unassigned) [Example 59]",7.80
7,"CN(CCO)[C@@]1(CCc2cccc(C(F)(F)F)c2)CCCN(c2cc(F)c(S(=O)(=O)Nc3ccncn3)c(F)c2)C1 (single isomer, unassigned) [Example 60]",6.86
8,"CN(CCO)[C@]1(CCc2cccc(C(F)(F)F)c2)CCCN(c2cc(F)c(S(=O)(=O)Nc3ccncn3)c(F)c2)C1 (single isomer, unassigned) [Example 61]",8.67
9,"Cc1cc(N2CCC[C@](CCc3cccc(C(F)(F)F)c3)(N(C)C)C2)cc(C)c1S(=O)(=O)Nc1ccncn1 (single isomer, unassigned) [Example 62, formate]",8.07
10,"Cc1cc(N2CCC[C@@](CCc3cccc(C(F)(F)F)c3)(N(C)C)C2)cc(C)c1S(=O)(=O)Nc1ccncn1 (single isomer, unassigned) [Example 63, formate]",6.75
11,"CN(C)[C@@]1(CCc2cccc(C(F)(F)F)c2)CCCN(c2cc(Cl)c(S(=O)(=O)Nc3ccncn3)c(Cl)c2)C1 (single isomer, unassigned) [Example 64]",8.81
12,"CN(C)[C@]1(CCc2cccc(C(F)(F)F)c2)CCCN(c2cc(Cl)c(S(=O)(=O)Nc3ccncn3)c(Cl)c2)C1 (single isomer, unassigned) [Example 65]",7.16
13,"Cc1cc(N2CCC[C@](CCc3cccc(C(F)(F)F)c3)(N(C)C)C2)cc(Cl)c1S(=O)(=O)Nc1ccncn1 (single isomer, unassigned) [Example 66, formate]",6.30
14,"Cc1cc(N2CCC[C@@](CCc3cccc(C(F)(F)F)c3)(N(C)C)C2)cc(Cl)c1S(=O)(=O)Nc1ccncn1 (single isomer, unassigned) [Example 67, formate]",8.62
15,"CN(C)[C@@]1(CCc2c(Cl)cccc2Cl)CCCN(c2cc(F)c(S(=O)(=O)Nc3ccncn3)c(F)c2)C1 (single isomer, unassigned) [Example 68, formate]",5.50
16,"CN(C)[C@]1(CCc2c(Cl)cccc2Cl)CCCN(c2cc(F)c(S(=O)(=O)Nc3ccncn3)c(F)c2)C1 (single isomer, unassigned) [Example 69, formate]",7.56
17,"CN(C)[C@@]1(CCc2cccc(C(F)(F)F)c2)CCCN(c2ccc(S(=O)(=O)Nc3ccncn3)c(Cl)c2)C1 (single isomer, unassigned) [Example 70]",8.37
18,"CN(C)[C@]1(CCc2cccc(C(F)(F)F)c2)CCCN(c2ccc(S(=O)(=O)Nc3ccncn3)c(Cl)c2)C1 (single isomer, unassigned) [Example 71, formate]",6.25
19,"Cc1cc(N2CCC[C@](CCc3cccc(C(F)(F)F)c3)(N(C)C)C2)ccc1S(=O)(=O)Nc1ccncn1 (single isomer, unassigned) [Example 72, formate]",8.04
20,"Cc1cc(N2CCC[C@@](CCc3cccc(C(F)(F)F)c3)(N(C)C)C2)ccc1S(=O)(=O)Nc1ccncn1 (single isomer, unassigned) [Example 73, formate]",6.17

row,SMILES,pIC50
1,"CN(C)[C@]1(CCc2cccc(C(F)(F)F)c2)CN(c2cc(F)c(S(=O)(=O)Nc3ccncn3)c(F)c2)CC[C@H]1O (single isomer, unassigned) [Example 74, formate]",6.00
2,"CN(C)[C@@]1(CCc2cccc(C(F)(F)F)c2)CN(c2cc(F)c(S(=O)(=O)Nc3ccncn3)c(F)c2)CC[C@@H]1O (single isomer, unassigned) [Example 75, formate]",8.35
3,"CN(C)[C@]1(CCc2cccc(C(F)(F)F)c2)CN(c2cc(F)c(S(=O)(=O)Nc3ccncn3)c(F)c2)CC[C@@H]1O (single isomer, unassigned) [Example 76, formate]",7.51
4,"CN(C)[C@@]1(CCc2cccc(C(F)(F)F)c2)CN(c2cc(F)c(S(=O)(=O)Nc3ccncn3)c(F)c2)CC[C@H]1O (single isomer, unassigned) [Example 77, formate]",8.59
5,"CCN(C)[C@@]1(CCc2cccc(C(F)(F)F)c2)CCCN(c2cc(F)c(S(=O)(=O)Nc3ccncn3)c(F)c2)C1 (single isomer, unassigned) [Example 78]",6.01
6,"CCN(C)[C@]1(CCc2cccc(C(F)(F)F)c2)CCCN(c2cc(F)c(S(=O)(=O)Nc3ccncn3)c(F)c2)C1 (single isomer, unassigned) [Example 79, formate]",8.12
7,"CN([C@H]1CCOC1)[C@@]1(CCc2cccc(C(F)(F)F)c2)CCCN(c2cc(F)c(S(=O)(=O)Nc3ccncn3)c(F)c2)C1 (single isomer, unassigned) [Example 80]",6.55
8,"CN([C@@H]1CCOC1)[C@]1(CCc2cccc(C(F)(F)F)c2)CCCN(c2cc(F)c(S(=O)(=O)Nc3ccncn3)c(F)c2)C1 (single isomer, unassigned) [Example 81]",9.17
9,"CN([C@@H]1CCOC1)[C@@]1(CCc2cccc(C(F)(F)F)c2)CCCN(c2cc(F)c(S(=O)(=O)Nc3ccncn3)c(F)c2)C1 (single isomer, unassigned) [Example 82]",6.18
10,"CN([C@H]1CCOC1)[C@]1(CCc2cccc(C(F)(F)F)c2)CCCN(c2cc(F)c(S(=O)(=O)Nc3ccncn3)c(F)c2)C1 (single isomer, unassigned) [Example 83]",8.77
11,"Cc1ccc(CC[C@]2(N(C)C)CCCN(c3cc(F)c(S(=O)(=O)Nc4ccncn4)c(F)c3)C2)cc1C(F)(F)F (single isomer, unassigned) [Example 84, formate]",8.55
12,"Cc1ccc(CC[C@@]2(N(C)C)CCCN(c3cc(F)c(S(=O)(=O)Nc4ccncn4)c(F)c3)C2)cc1C(F)(F)F (single isomer, unassigned) [Example 85]",6.60
13,"CN(C)[C@@]1(CCc2ccc(C3CC3)c(C(F)(F)F)c2)CCCN(c2cc(F)c(S(=O)(=O)Nc3ccncn3)c(F)c2)C1 (single isomer, unassigned) [Example 86]",8.42
14,"CN(C)[C@]1(CCc2ccc(C3CC3)c(C(F)(F)F)c2)CCCN(c2cc(F)c(S(=O)(=O)Nc3ccncn3)c(F)c2)C1 (single isomer, unassigned) [Example 87]",6.17
15,"CN(C)[C@@]1(CCc2cccc(C3CC3)c2)CCCN(c2cc(F)c(S(=O)(=O)Nc3ccncn3)c(F)c2)C1 (single isomer, unassigned) [Example 88, formate]",8.48
16,"CN(C)[C@]1(CCc2cccc(C3CC3)c2)CCCN(c2cc(F)c(S(=O)(=O)Nc3ccncn3)c(F)c2)C1 (single isomer, unassigned) [Example 89, formate]",6.25
17,"CN(C)[C@@]1(CCc2cccc(Cl)c2)CCCN(c2cc(F)c(S(=O)(=O)Nc3ccncn3)c(F)c2)C1 (single isomer, unassigned) [Example 90, formate]",5.35
18,"CN(C)[C@]1(CCc2cccc(Cl)c2)CCCN(c2cc(F)c(S(=O)(=O)Nc3ccncn3)c(F)c2)C1 (single isomer, unassigned) [Example 91, formate]",7.94
19,"CN[C@]1(CCc2cccc(C(F)(F)F)c2)CCCN(c2ccc(S(=O)(=O)Nc3ccncn3)c(F)c2)C1 [Example 3, (R)-2-Fluoro-4-(3-(methylamino)-3-(3-(trifluoromethyl)-phenethyl)piperidin-1-yl)-N-(pyrimidin-4-yl)benzenesulfonamide]",7.67
